Where a SMILES comes first, the peptide text is derived from it. [ ]: non-standard residue; d: D form. The star is where a group is joined. NHCH2CH2OH = OCCN*; For = O=C*
Key:
[1] = H+/Na+ transport assay of bead-derived peptides (one-point); assay type: biochemical; parameters: key: relative activity; mean of two control wells = 1.00; details: bead-derived peptide solution, EYPC/EYPG LUVs;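 note: relative to parent gramicidin A activity set to 1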
How it was run: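 One-point screen: peptide + pyranine-loaded LUVs, 30 min RT with vortexing, 96-well. Read-out is fluorescence intensity scaled as 100 × (Ix – I0)/(Imax – I0). Imax from Triton X-100, I0 from untreated vesicles, and the mean of the two control wells is set to 1.00.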

[2] = cell viability/%
How it was run: (§1)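 P388 cells at 1 × 10^4 cells/mL (final) were exposed to library peptides (stocks diluted 250-fold in RPMI1640/10% FBS) for 92 h at 37 °C, 5% CO2. Viable cells were counted by WST-1/1-methoxy PMS (4 h), absorbance 415 nm, and expressed as cell viability (%).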

[3] = tested on: Streptococcus pyogenes SSI-9; test: Antibacterial activity assay of bead-derived peptides (three concentrations); assay type: cell-based; parameters: key: +++: inhibition by the 640-fold diluted peptide solution; ++: inhibition by the 160-fold diluted solution; +: inhibition by the 40-fold diluted solution; -: no inhibition; details: S. pyogenes, bead-derived peptide solution, three concentrations
How it was run: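 Library peptide stock applied undiluted, 4-fold and 16-fold diluted in DMSO to S. pyogenes SSI-9 (2 × 10^5 CFU) in cation-adjusted Mueller Hinton broth with 5% laked horse blood. After 18 h at 37 °C, growth judged by visible cell precipitation.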

[4] = tested on: P388 mouse leukemia cells; details: 92 h
How it was run: as §1

Row | Structure (SMILES) | H+/Na+ transport activity normalized against the value of 1 (1.00) [1] | viability [2] [%] | antibacterial activity [3] | cell viability/% [4] [%]
1 | CC(C)C[C@@H](NC(=O)[C@H](C)NC(=O)CNC(=O)[C@@H](NC=O)C(C)C)C(=O)N[C@@H](C)C(=O)N[C@@H](C(=O)N[C@H](C(=O)N[C@@H](C(=O)N[C@@H](Cc1c[nH]c2ccccc12)C(=O)N[C@@H](C(=O)N[C@@H](Cc1c[nH]c2ccccc12)C(=O)N[C@@H](C(=O)N[C@@H](Cc1c[nH]c2ccccc12)C(=O)N[C@@H](C(=O)N[C@@H](Cc1c[nH]c2ccccc12)C(=O)NCCO)C(C)C)C(C)C)C(C)C)C(C)C)C(C)C)C(C)C [compound 725] (For-VGA[dL]A[dV]V[dV]W[dV]W[dV]W[dV]W-NHCH2CH2OH) | 1.10 | 100 | + | 
2 | CC(C)C[C@@H](NC(=O)[C@H](C)NC(=O)CNC(=O)[C@@H](NC=O)C(C)C)C(=O)N[C@@H](C)C(=O)N[C@H](CC(C)C)C(=O)N[C@H](C(=O)N[C@H](CC(C)C)C(=O)N[C@@H](Cc1c[nH]c2ccccc12)C(=O)N[C@H](CC(C)C)C(=O)N[C@@H](Cc1c[nH]c2ccccc12)C(=O)N[C@@H](C(=O)N[C@@H](Cc1c[nH]c2ccccc12)C(=O)N[C@@H](C(=O)N[C@@H](Cc1c[nH]c2ccccc12)C(=O)NCCO)[C@H](C)O)C(C)C)C(C)C [compound 7512] (For-VGA[dL]A[dL]V[dL]W[dL]W[dV]W[dT]W-NHCH2CH2OH) | 1.05 | 100 | - | 
3 | CC(C)C[C@@H](NC(=O)[C@H](C)NC(=O)[C@H](NC(=O)[C@H](C)NC(=O)CNC(=O)[C@@H](NC=O)C(C)C)C(C)C)C(=O)N[C@H](C(=O)N[C@@H](C(=O)N[C@@H](Cc1c[nH]c2ccccc12)C(=O)N[C@@H](C(=O)N[C@@H](Cc1c[nH]c2ccccc12)C(=O)N[C@@H](C(=O)N[C@@H](Cc1c[nH]c2ccccc12)C(=O)N[C@H](CC(C)C)C(=O)N[C@@H](Cc1c[nH]c2ccccc12)C(=O)NCCO)[C@H](C)O)C(C)C)C(C)C)C(C)C [compound 2727] (For-VGA[dV]A[dL]V[dV]W[dV]W[dT]W[dL]W-NHCH2CH2OH) | 1.05 | 100 | - | 
4 | CC(C)C[C@@H](NC(=O)[C@H](C)NC(=O)CNC(=O)[C@@H](NC=O)C(C)C)C(=O)N[C@@H](C)C(=O)N[C@H](CC(C)C)C(=O)N[C@H](C(=O)N[C@H](CC(C)C)C(=O)N[C@@H](Cc1c[nH]c2ccccc12)C(=O)N[C@H](CC(C)C)C(=O)N[C@@H](Cc1c[nH]c2ccccc12)C(=O)N[C@@H](C(=O)N[C@@H](Cc1c[nH]c2ccccc12)C(=O)N[C@@H](C(=O)N[C@@H](Cc1c[nH]c2ccccc12)C(=O)NCCO)C(C)C)[C@H](C)O)C(C)C [compound 2346] (For-VGA[dL]A[dL]V[dL]W[dL]W[dT]W[dV]W-NHCH2CH2OH) | 1.03 | 100 | + | 
5 | CNC(=O)C[C@@H](NC(=O)[C@H](Cc1c[nH]c2ccccc12)NC(=O)[C@H](NC(=O)[C@H](Cc1c[nH]c2ccccc12)NC(=O)[C@@H](CC(C)C)NC(=O)[C@@H](NC(=O)[C@H](NC(=O)[C@H](C)NC(=O)[C@H](NC(=O)[C@H](C)NC(=O)CNC(=O)[C@@H](NC=O)C(C)C)C(C)C)C(C)C)C(C)C)C(C)C)C(=O)N[C@@H](Cc1c[nH]c2ccccc12)C(=O)N[C@@H](C(=O)N[C@@H](Cc1c[nH]c2ccccc12)C(=O)NCCO)C(C)C [compound 3369] (For-VGA[dV]A[dV]V[dL]W[dV]W[dD](NHMe)W[dV]W-NHCH2CH2OH) | 1.00 | 100 | - | 
6 | CC(C)C[C@@H](NC(=O)[C@H](C)NC(=O)CNC(=O)[C@@H](NC=O)C(C)C)C(=O)N[C@@H](C)C(=O)N[C@@H](C(=O)N[C@H](C(=O)N[C@@H](C(=O)N[C@@H](Cc1c[nH]c2ccccc12)C(=O)N[C@H](CC(C)C)C(=O)N[C@@H](Cc1c[nH]c2ccccc12)C(=O)N[C@H](CC(C)C)C(=O)N[C@@H](Cc1c[nH]c2ccccc12)C(=O)N[C@H](CC(C)C)C(=O)N[C@@H](Cc1c[nH]c2ccccc12)C(=O)NCCO)C(C)C)C(C)C)[C@H](C)O [compound 9098] (For-VGA[dL]A[dT]V[dV]W[dL]W[dL]W[dL]W-NHCH2CH2OH) | 1.13 | 51 | - | 
7 | CC(C)C[C@@H](NC(=O)[C@H](C)NC(=O)CNC(=O)[C@@H](NC=O)C(C)C)C(=O)N[C@@H](C)C(=O)N[C@@H](C(=O)N[C@H](C(=O)N[C@@H](C(=O)N[C@@H](Cc1c[nH]c2ccccc12)C(=O)N[C@@H](C(=O)N[C@@H](Cc1c[nH]c2ccccc12)C(=O)N[C@H](CC(C)C)C(=O)N[C@@H](Cc1c[nH]c2ccccc12)C(=O)N[C@H](CC(C)C)C(=O)N[C@@H](Cc1c[nH]c2ccccc12)C(=O)NCCO)C(C)C)C(C)C)C(C)C)C(C)C [compound 2082] (For-VGA[dL]A[dV]V[dV]W[dV]W[dL]W[dL]W-NHCH2CH2OH) | 1.16 |  | + | 100.0
8 | CC(C)C[C@@H](NC(=O)[C@H](C)NC(=O)[C@H](NC(=O)[C@H](C)NC(=O)CNC(=O)[C@@H](NC=O)C(C)C)[C@H](C)O)C(=O)N[C@H](C(=O)N[C@H](CC(C)C)C(=O)N[C@@H](Cc1c[nH]c2ccccc12)C(=O)N[C@H](CC(C)C)C(=O)N[C@@H](Cc1c[nH]c2ccccc12)C(=O)N[C@@H](C(=O)N[C@@H](Cc1c[nH]c2ccccc12)C(=O)N[C@H](CC(C)C)C(=O)N[C@@H](Cc1c[nH]c2ccccc12)C(=O)NCCO)C(C)C)C(C)C [compound 5329] (For-VGA[dT]A[dL]V[dL]W[dL]W[dV]W[dL]W-NHCH2CH2OH) | 1.26 |  | - | 100.0
9 | CC(C)C[C@@H](NC(=O)[C@H](C)NC(=O)CNC(=O)[C@@H](NC=O)C(C)C)C(=O)N[C@@H](C)C(=O)N[C@H](CC(C)C)C(=O)N[C@H](C(=O)N[C@H](CC(C)C)C(=O)N[C@@H](Cc1c[nH]c2ccccc12)C(=O)N[C@H](CC(C)C)C(=O)N[C@@H](Cc1c[nH]c2ccccc12)C(=O)N[C@@H](C(=O)N[C@@H](Cc1c[nH]c2ccccc12)C(=O)N[C@@H](C(=O)N[C@@H](Cc1c[nH]c2ccccc12)C(=O)NCCO)C(C)C)C(C)C)C(C)C [compound 2718] (For-VGA[dL]A[dL]V[dL]W[dL]W[dV]W[dV]W-NHCH2CH2OH) | 1.11 |  | + | 0.3
10 | CC(C)C[C@@H](NC(=O)[C@H](Cc1c[nH]c2ccccc12)NC(=O)[C@@H](CC(C)C)NC(=O)[C@H](Cc1c[nH]c2ccccc12)NC(=O)[C@H](NC(=O)[C@H](Cc1c[nH]c2ccccc12)NC(=O)[C@@H](CC(C)C)NC(=O)[C@@H](NC(=O)[C@H](NC(=O)[C@H](C)NC(=O)[C@H](NC(=O)[C@H](C)NC(=O)CNC(=O)[C@@H](NC=O)C(C)C)C(C)C)C(C)C)C(C)C)C(C)C)C(=O)N[C@@H](Cc1c[nH]c2ccccc12)C(=O)NCCO [compound 12538] (For-VGA[dV]A[dV]V[dL]W[dV]W[dL]W[dL]W-NHCH2CH2OH) | 1.01 |  | - | 2.1
11 | CNC(=O)C[C@@H](NC(=O)[C@H](Cc1c[nH]c2ccccc12)NC(=O)[C@H](NC(=O)[C@H](Cc1c[nH]c2ccccc12)NC(=O)[C@@H](CC(C)C)NC(=O)[C@H](Cc1c[nH]c2ccccc12)NC(=O)[C@H](NC(=O)[C@@H](NC(=O)[C@@H](CC(C)C)NC(=O)[C@H](C)NC(=O)[C@H](NC(=O)[C@H](C)NC(=O)CNC(=O)[C@@H](NC=O)C(C)C)C(C)C)C(C)C)C(C)C)C(C)C)C(=O)N[C@@H](Cc1c[nH]c2ccccc12)C(=O)NCCO [compound 9727] (For-VGA[dV]A[dL]V[dV]W[dL]W[dV]W[dD](NHMe)W-NHCH2CH2OH) | 1.10 |  | - | 100.0
12 | CC(C)C[C@@H](NC(=O)[C@H](C)NC(=O)[C@H](NC(=O)[C@H](C)NC(=O)CNC(=O)[C@@H](NC=O)C(C)C)C(C)C)C(=O)N[C@H](C(=O)N[C@@H](C(=O)N[C@@H](Cc1c[nH]c2ccccc12)C(=O)N[C@H](CC(C)C)C(=O)N[C@@H](Cc1c[nH]c2ccccc12)C(=O)N[C@H](CC(C)C)C(=O)N[C@@H](Cc1c[nH]c2ccccc12)C(=O)N[C@@H](C(=O)N[C@@H](Cc1c[nH]c2ccccc12)C(=O)NCCO)C(C)C)C(C)C)C(C)C [compound 12789] (For-VGA[dV]A[dL]V[dV]W[dL]W[dL]W[dV]W-NHCH2CH2OH) | 1.04 |  | - | 9.6
13 | CC(C)C[C@@H](NC(=O)[C@H](C)NC(=O)[C@H](NC(=O)[C@H](C)NC(=O)CNC(=O)[C@@H](NC=O)C(C)C)[C@H](C)O)C(=O)N[C@H](C(=O)N[C@@H](C(=O)N[C@@H](Cc1c[nH]c2ccccc12)C(=O)N[C@@H](C(=O)N[C@@H](Cc1c[nH]c2ccccc12)C(=O)N[C@H](CC(C)C)C(=O)N[C@@H](Cc1c[nH]c2ccccc12)C(=O)N[C@H](CC(C)C)C(=O)N[C@@H](Cc1c[nH]c2ccccc12)C(=O)NCCO)C(C)C)C(C)C)C(C)C [compound 4652] (For-VGA[dT]A[dL]V[dV]W[dV]W[dL]W[dL]W-NHCH2CH2OH) | 1.03 |  | - | 100.0

Source: publication PMC7531004, “Discovery of gramicidin A analogues with altered activities by multidimensional screening of a one-bead-one-compound library” (Nature Communications, 2020)
